Experimental findings from article PMC4961458 (eLife, 2016) are described below.

One series concerns the target T1, MR (Homo sapiens, UniProt P08235).
T1 construct: expressed in transfected cells; host or cells: HEPG2
T1 sequence (P08235 1-984): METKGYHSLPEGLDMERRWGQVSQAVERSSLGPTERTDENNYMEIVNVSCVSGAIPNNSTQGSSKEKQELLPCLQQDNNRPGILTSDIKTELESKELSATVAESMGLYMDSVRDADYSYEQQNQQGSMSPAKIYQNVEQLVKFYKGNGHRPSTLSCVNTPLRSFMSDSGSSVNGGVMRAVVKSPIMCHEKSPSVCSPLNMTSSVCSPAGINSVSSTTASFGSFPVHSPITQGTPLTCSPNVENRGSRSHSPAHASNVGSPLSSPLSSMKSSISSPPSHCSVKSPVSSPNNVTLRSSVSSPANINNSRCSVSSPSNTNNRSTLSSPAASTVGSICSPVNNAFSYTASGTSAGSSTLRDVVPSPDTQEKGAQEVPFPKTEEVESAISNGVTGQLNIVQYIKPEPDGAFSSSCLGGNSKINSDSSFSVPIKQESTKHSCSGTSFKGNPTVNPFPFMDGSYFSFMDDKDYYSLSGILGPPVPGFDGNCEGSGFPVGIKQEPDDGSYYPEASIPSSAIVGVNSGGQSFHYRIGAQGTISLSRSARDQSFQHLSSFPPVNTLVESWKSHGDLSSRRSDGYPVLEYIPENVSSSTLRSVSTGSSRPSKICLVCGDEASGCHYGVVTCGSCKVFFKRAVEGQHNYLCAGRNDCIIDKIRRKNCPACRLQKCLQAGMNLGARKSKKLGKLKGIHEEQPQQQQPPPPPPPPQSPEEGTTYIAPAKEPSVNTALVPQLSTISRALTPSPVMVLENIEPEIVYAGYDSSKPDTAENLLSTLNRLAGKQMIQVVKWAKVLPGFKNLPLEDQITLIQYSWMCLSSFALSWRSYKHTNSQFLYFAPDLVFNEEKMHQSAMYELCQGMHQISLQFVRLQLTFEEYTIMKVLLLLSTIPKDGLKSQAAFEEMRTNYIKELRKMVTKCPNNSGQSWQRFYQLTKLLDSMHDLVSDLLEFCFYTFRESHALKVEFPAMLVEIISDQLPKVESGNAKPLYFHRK
Description: MR transcriptional reporter assay, agonist mode (HEPG2 cells). The settings on record: % of maximal aldosterone-stimulated activity. The format is cell-based. As to the method:
Transcriptional assays were performed by seeding 100 μL of cells at a density of 250,000 cells/mL into 96-well cell culture plates in RPMI 1640 supplemented with 5% charcoal-stripped serum and allowed to attach overnight. […] Triplicate transfections were performed using 418 ng reporter vector (2X PRE-Luciferase for PR-A and PR-B, MMTV-Luciferase for MR), 50 ng CMVpRL (normalization vector), 10 ng NHR expression vector (CMX-PR-A, pCDNA-PR-B or 6R-MR), and 0.7 μL lipofectin. […] The final agonist concentration used in the antagonist assays was 1 nM. Following 24 hr incubation, the medium was removed and the cells were lysed in 40 μL of lysis buffer (25 mM Tris Phosphate, 2 mM CDTA, 10% Glycerol, 0.5% Triton X-100, 2 mM DTT). Firefly luciferase activity was measured immediately following the addition of 40 μL luciferase buffer (20 mM tricine, 0.1 mM EDTA, 1.07 mM (MgCO3)4 Mg(OH)2· 5H2O, 2.67 mM MgSO4, 33.3 mM DTT, 270 μM Coenzyme A, 470 μM luciferin, 530 μM ATP).

In series [1] the test system is Doxycycline-inducible MCF7 cells over-expressing ER (ER.WT). The series can be described thus: Cell viability, doxycycline-inducible ER over-expressing MCF7 cells. The series is classed as cell-based. Particulars: Homo sapiens, MCF7, 168 h, 7 days; for IC50: 0.1 nM E2, 10 ng/ml doxycycline; for EC50: estrogen-depleted medium, 10 ng/ml doxycycline, read-out: Cell viability EC50, ER.WT -E2.

The next series relates to uterus of juvenile rats. Description: Juvenile rat uterus assays. The series is classed as in vivo, Sprague Dawley rats. Particulars: for Uterine wet weight: tamoxifen 60 mg/kg orally once a day for 3 days, GDC-0810 0.1 or 10 mg/kg, relative to vehicle control; for Uterine wet weight / Endometrial epithelial cell morphology (histology, endometrial cell height): fulvestrant 50 mg/kg; for Endometrial epithelial cell morphology (histology, endometrial cell height): tamoxifen 60 mg/kg, GDC-0810 0.1 and 10 mg/kg. The source says: […] Rats were euthanized 4 hr after the final dose. Uteri were then dissected, weighed and fixed for histological examination. A small portion of tissue was saved prior to fixation for mRNA isolation and gene expression analysis.
H&E stained sections from bilateral representative uterine horn cross-sections were examined from two animals treated with the compounds shown. Endometrial cell height was digitally measured from the basement membrane to the apical (luminal) surface (orange line), using a digitally scanned image at 20X magnification. Obliquely cut areas were avoided. Three digital measurements were taken from each section (n = 6).
Estrogen receptor was detected using the mouse monoclonal anti-ER (clone 1D5, Dako), incubated for 60 min at RT at a dilution of 0.5 µg/ml, and visualized after secondary rabbit anti-mouse antibody binding with Powervision DAB (Leica Powersystems). H-scores were estimated manually, incorporating both intensity and percentage of positive nuclei, using the following formula: (0 x% negative)+(1 x% weak)+(2 x% moderate)+(3 x% strong)

A further series relates to WHIM20 tumors. The format is in vivo, mice. The settings on record: no E2 pellets; GDC-0810 100 mg/kg/day; tamoxifen 60 mg/kg/day; fulvestrant 50 mg/kg days 1, 3 and 7, 25 mg/kg weekly thereafter; 35 days. The source says: Figure 8. […] (B) Gene expression analysis of WHIM20 tumors after 4 days of dosing, harvested 8 hr after the final dose. […] (E) WHIM20 tumors were implanted in mice without supplemental 17β-estradiol pellets.
The WHIM20 patient derived xenograft model (WHIM20) was established via direct implantation of metastatic tumor material into immune compromised mice at Washington University in St. Louis ([Li et al., 2013]).
Tumors were established from fragments obtained from Washington University by subcutaneous implantation via 10G trocar into the right flank of 6–7 week old female NOD.CB17-Prkdc^scid/NcrCrl mice (Charles River Laboratories) and NOD.Cg-Prkdc^scid Il2rg^tm1Wjl/SzJ mice (Jackson Laboratories). Tumor line was propagated by serial transplantation. Animals were ovariectomized prior to initiation of treatment.

With `CC/C(=C(\c1ccc(O)cc1)c1ccc(OCCN(C)C)cc1)c1ccccc1` [4-OH Tam, 4-hydroxytamoxifen], the Emax (as a rule, the maximal effect, on the per cent scale that the assay sets) on MR was 0%.
Turning to `C[C@]12CC[C@@H]3c4ccc(O)cc4C[C@@H](CCCCCCCCC[S+]([O-])CCCC(F)(F)C(F)(F)F)[C@H]3[C@@H]1CC[C@@H]2O` (some centres unmarked) [Fulvestrant], in series [1], the IC50 – broadly, the midpoint of a concentration-inhibition curve – is 11 nM and the concentration giving a half-maximal response (EC50) (in general, the concentration at which the effect is half-maximal) is 1.2 nM. In the series on uterus of juvenile rats, the “ER levels in the uterus (IHC)” value is “robustly depletes ER”; the Uterine wet weight entry is “significant decrease in uterine weight”; the “Endometrial epithelial cell morphology (histology, endometrial cell height)” value is listed as “remained cuboidal”. In the series on WHIM20 tumors, the “Tumor growth response, WHIM20 PDX” value is “tumor growth inhibition”.
As to `CC/C(=C(/c1ccc(/C=C/C(=O)O)cc1)c1ccc2[nH]ncc2c1)c1ccc(F)cc1Cl` [GDC-0810], in series [1], the IC50 worked out at 19 nM and the EC50 stood at 0.8 nM. The same compound returned an Emax on MR of 0.09 ± 0.16%. In the series with uterus of juvenile rats, the “ER levels in the uterus (IHC)” value is recorded as “only modestly reduces ER levels”; the Uterine wet weight result is on record as “did not significantly alter uterine wet”; the “Endometrial epithelial cell morphology (histology, endometrial cell height)” value is reported as “induced a cuboidal to columnar morphological change”. The “Tumor growth response, WHIM20 PDX” value in the series with WHIM20 tumors is listed as “induced tumor stasis”.
